In patent US5648336A (University of Colorado, priority 1994, dated 1997):
Where two headings read alike, the source gives them in different places. Square brackets hold non-standard residues; d marks the D form. Ends that are not written are not given here. Peptide text beside a SMILES is read from it. * marks the point of attachment. X1 = N=C(N)NCCC[C@@H](NC(=NC1CCCCC1)NC1CCCCC1)C(=O)*; Oic = O=C(O)[C@@H]1C[C@@H]2CCCC[C@@H]2N1; dIgl = N[C@@H](C(=O)O)C1Cc2ccccc2C1; Igl = N[C@H](C(=O)O)C1Cc2ccccc2C1; Hyp = O=C(O)[C@@H]1C[C@@H](O)CN1; 2Thi = N[C@@H](Cc1cccs1)C(=O)O

Columns and labels:
[1] = test system: guinea pig ileum
Text: (§1) A change of one unit of pA2 value represents an order of magnitude change in potency.
(§2) On isolated smooth muscles, agonist potency is given as percent of BK potency; antagonist potency is given as pA2, and is underlined. In blood pressure assays, the number is the dose of peptide in micrograms that causes 50% reduction in the effect of BK intraarterially administered as a bolus mixture in a 500 g male rat; Ag indicates unquantitated agonist activity; Ant indicates unquantitated antagonist activity.

[2] = test system: isolated rat uterus
Text: as §1, §2

[3] = target: T1, B1 receptors (Oryctolagus cuniculus, UniProt P48748); test: B1 receptor bioassay, rabbit aorta strips contracted with des-Arg9-BK; assay type: cell-based; details: 50% reduction of sustained contraction to 10^-7 M des-Arg9-BK; read-out: Rabbit Aorta p IC50 B1 receptors (converted)
T1 construct: The thorax was opened and the thoracic aorta carefully removed; from tissue; host or cells: rabbit thoracic aorta spiral strips
T1 sequence (P48748 1-352): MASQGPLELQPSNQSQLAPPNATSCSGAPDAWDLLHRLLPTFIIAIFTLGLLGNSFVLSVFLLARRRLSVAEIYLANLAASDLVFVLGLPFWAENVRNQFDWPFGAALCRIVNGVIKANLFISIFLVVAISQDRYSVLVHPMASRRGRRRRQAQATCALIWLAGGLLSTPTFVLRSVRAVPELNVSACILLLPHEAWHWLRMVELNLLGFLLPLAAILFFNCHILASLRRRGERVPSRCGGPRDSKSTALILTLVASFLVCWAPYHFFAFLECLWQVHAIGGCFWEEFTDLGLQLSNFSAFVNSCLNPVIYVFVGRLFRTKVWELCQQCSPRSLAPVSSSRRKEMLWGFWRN
Protocol: Male New Zealand white rabbits, weight range 2-3 kg, were killed by an overdose of pentobarbital i.v. The thorax was opened and the thoracic aorta carefully removed. […] The tissues were placed under 1 gm isometric tension and allowed to equilibrate for 1H. At time 1h, a concentration-effect curve was constructed to the selective B1 agonist des-Arg^9 -BK. This was repeated at time 3 hours. […] Once the contraction was sustained, the compound to be assayed was applied to the tissue bath in a cumulative manner. The concentration of the compound which produced a 50% reduction of the sustained contraction was calculated. The negative logarithm of this concentration was calculated and expressed as the […].

[4] = guinea pig ileum, vs double ED50 dose of bradykinin

Compound | Ileum Activity, antagonist potency given as pA2 [1] | Uterus Activity, antagonist potency given as pA2 [2] | also measured
N=C(N)NCCC[C@@H](N)C(=O)N[C@@H](CCCNC(=N)N)C(=O)N1CCC[C@H]1C(=O)N1C[C@H](O)C[C@H]1C(=O)NCC(=O)N[C@@H](Cc1cccs1)C(=O)N[C@@H](CO)C(=O)N[C@@H](C(=O)N[C@@H](C(=O)N[C@@H](CCCNC(=N)N)C(=O)O)C1Cc2ccccc2C1)C1CCCC1 [Compound 9, DArg-Arg-Pro-Hyp-Gly-Thi-Ser-DCpg-DIglb-Arg] | 7.2 | 7.4 | 
N=C(N)NCCC[C@@H](N)C(=O)N[C@@H](CCCNC(=N)N)C(=O)N1CCC[C@H]1C(=O)N1C[C@H](O)C[C@H]1C(=O)NCC(=O)N[C@H](C(=O)N[C@@H](CO)C(=O)N[C@@H](C(=O)N[C@@H](C(=O)N[C@@H](CCCNC(=N)N)C(=O)O)C1Cc2ccccc2C1)C1CCCC1)C1CCCC1 [Compound 11, DArg-Arg-Pro-Hyp-Gly-Cpg-Ser-DCpg-DIglb-Arg] |  |  | IC50 [3]: 398 nM
N=C(N)NCCC[C@@H](N)C(=O)N[C@@H](CCCNC(=N)N)C(=O)N1CCC[C@H]1C(=O)N1C[C@H](O)C[C@H]1C(=O)NCC(=O)N[C@H](C(=O)N[C@@H](CO)C(=O)N1Cc2ccccc2C[C@@H]1C(=O)N[C@H](C(=O)N[C@@H](CCCNC(=N)N)C(=O)O)C1Cc2ccccc2C1)C1CCCC1 [Compound 12, DArg-Arg-Pro-Hyp-Gly-Cpg-Ser-DTic-Iglb-Arg] | 5.1 |  | Uterus Activity, agonist potency given as percent of BK potency [2]: 10.5%
N=C(N)NCCC[C@@H](N)C(=O)N[C@@H](CCCNC(=N)N)C(=O)N1CCC[C@H]1C(=O)N1C[C@H](O)C[C@H]1C(=O)NCC(=O)N[C@H](C(=O)N[C@@H](CO)C(=O)N1Cc2ccccc2C[C@@H]1C(=O)N[C@@H](C(=O)N[C@@H](CCCNC(=N)N)C(=O)O)C1Cc2ccccc2C1)C1CCCC1 [Compound 13, DArg-Arg-Pro-Hyp-Gly-Cpg-Ser-DTic-DIglb-Arg] | 6.0 |  | Uterus Activity, agonist potency given as percent of BK potency [2]: 8.6%
N=C(N)NCCC[C@@H](N)C(=O)N[C@@H](CCCNC(=N)N)C(=O)N1CCC[C@H]1C(=O)N1C[C@H](O)C[C@H]1C(=O)NCC(=O)N[C@@H](Cc1ccccc1)C(=O)N[C@@H](CO)C(=O)N[C@H](C(=O)N1[C@H](C(=O)N[C@@H](CCCNC(=N)N)C(=O)O)C[C@@H]2CCCC[C@@H]21)C1Cc2ccccc2C1 [Compound 14, DArg-Arg-Pro-Hyp-Gly-Phe-Ser-Iglb-Oic-Arg] (H-[dR]RP[Hyp]GFS[Igl][Oic]R-OH) | 5.1 | 6.5 | 
N=C(N)NCCC[C@@H](N)C(=O)N[C@@H](CCCNC(=N)N)C(=O)N1CCC[C@H]1C(=O)N1C[C@H](O)C[C@H]1C(=O)NCC(=O)N[C@@H](Cc1ccccc1)C(=O)N[C@@H](CO)C(=O)N[C@@H](C(=O)N1[C@H](C(=O)N[C@@H](CCCNC(=N)N)C(=O)O)C[C@@H]2CCCC[C@@H]21)C1Cc2ccccc2C1 [Compound 15, DArg-Arg-Pro-Hyp-Gly-Phe-Ser-DIglb-Oic-Arg] (H-[dR]RP[Hyp]GFS[dIgl][Oic]R-OH) | 7.6 | 7.9 | IC50 [3]: 162 nM
N=C(N)NCCC[C@@H](N)C(=O)N[C@@H](CCCNC(=N)N)C(=O)N1CCC[C@H]1C(=O)N1C[C@H](O)C[C@H]1C(=O)NCC(=O)N[C@H](C(=O)N[C@@H](CO)C(=O)N[C@@H](C(=O)N1[C@H](C(=O)N[C@@H](CCCNC(=N)N)C(=O)O)C[C@@H]2CCCC[C@@H]21)C1Cc2ccccc2C1)C1CCCC1 [Compound 24, DArg-Arg-Pro-Hyp-Gly-Cpg-Ser-DIglb-Oic-Arg] | 8.1 |  | IC50 [3]: 427 nM
Cc1ccc(C[C@H](NC(=O)CNC(=O)[C@@H]2C[C@@H](O)CN2C(=O)[C@@H]2CCCN2C(=O)[C@H](CCCNC(=N)N)NC(=O)[C@H](N)CCCNC(=N)N)C(=O)N[C@@H](CO)C(=O)N[C@@H](C(=O)N2[C@H](C(=O)N[C@@H](CCCNC(=N)N)C(=O)O)C[C@@H]3CCCC[C@@H]32)C2Cc3ccccc3C2)c(C)c1 [Compound 26, DArg-Arg-Pro-Hyp-Gly-DMF-Ser-DIglb-Oic-Arg] | 6.6 | 7.3 | 
N=C(N)NCCC[C@@H](N)C(=O)N[C@@H](CCCNC(=N)N)C(=O)N1CCC[C@H]1C(=O)N1C[C@H](O)C[C@H]1C(=O)NCC(=O)N[C@H](C(=O)N[C@@H](CO)C(=O)N1Cc2ccccc2C[C@@H]1C(=O)N(CC(=O)N[C@@H](CCCNC(=N)N)C(=O)O)C1Cc2ccccc2C1)C1CCCC1 [Compound 29, DArg-Arg-Pro-Hyp-Gly-Cpg-Ser-DTic-Nigb-Arg] | 7.6 | 8.1 | 
N=C(N)NCCC[C@@H](N)C(=O)N[C@@H](CCCNC(=N)N)C(=O)N1CCC[C@H]1C(=O)N1C[C@H](O)C[C@H]1C(=O)NCC(=O)N[C@@H](C(=O)N[C@@H](CO)C(=O)N[C@@H](C(=O)N1[C@H](C(=O)N[C@@H](CCCNC(=N)N)C(=O)O)C[C@@H]2CCCC[C@@H]21)C1Cc2ccccc2C1)C1Cc2ccccc2C1 [Compound 30, DArg-Arg-Pro-Hyp-Gly-DIglb-Ser-DIglb-Oic-Arg] |  |  | IC50 [3]: > 10000 nM
N=C(N)NCCC[C@H](NC(=O)[C@@H]1C[C@@H]2CCCC[C@@H]2N1C(=O)[C@@H](NC(=O)[C@H](CO)NC(=O)[C@H](Cc1cccs1)NC(=O)CNC(=O)[C@@H]1C[C@@H](O)CN1C(=O)[C@@H]1CCCN1C(=O)[C@H](CCCNC(=N)N)NC(=O)[C@@H](CCCNC(=N)N)NC(=O)C12CC3CC(CC(C3)C1)C2)C1Cc2ccccc2C1)C(=O)O [Compound 54, Aca-DArg-Arg-Pro-Hyp-Gly-Thi-Ser-Iglb-Oic-Arg] |  | 5.8 | 
N=C(N)NCCC[C@H](NC(=O)[C@@H]1C[C@@H]2CCCC[C@@H]2N1C(=O)[C@H](NC(=O)[C@H](CO)NC(=O)[C@H](Cc1cccs1)NC(=O)CNC(=O)[C@@H]1C[C@@H](O)CN1C(=O)[C@@H]1CCCN1C(=O)[C@H](CCCNC(=N)N)NC(=O)[C@@H](CCCNC(=N)N)NC(=NC1CCCCC1)NC1CCCCC1)C1Cc2ccccc2C1)C(=O)O [Compound 58, Dcg-DArg-Arg-Pro-Hyp-Gly-Thi-Ser-DIglb-Oic-Arg] (X1-RP[Hyp]G[2Thi]S[dIgl][Oic]R-OH) | 5.4 |  | Uterus Activity, agonist potency given as percent of BK potency [2]: 3.0%
N=C(N)NCCC[C@H](NC(=O)[C@@H]1C[C@@H]2CCCC[C@@H]2N1C(=O)[C@H](NC(=O)[C@H](CO)NC(=O)[C@H](Cc1cccs1)NC(=O)CNC(=O)[C@@H]1C[C@@H](O)CN1C(=O)[C@@H]1CCCN1C(=O)[C@H](CCCNC(=N)N)NC(=O)[C@@H](CCCNC(=N)N)NC(=O)C1=CN2CCC1CC2)C1Cc2ccccc2C1)C(=O)O [Compound 59, Dhq-DArg-Arg-Pro-Hyp-Gly-Thi-Ser-DIglb-Oic-Arg] | 7.2 | 8.1 | 
DArg-Arg-Pro-Hyp-Gly-Thi-Ser-DIgl-Iglb-Arg [Compound 19] |  |  | Ileum Activity, antagonist potency given as pA2 [1, 4]: 6.7; Uterus Activity, agonist potency given as percent of BK potency ([2]; isolated rat uterus): 9.1%
DArg-Arg-Pro-Hyp-Gly-Thi-Ser-Higb-Oic-Arg [Compound 125] |  |  | Ileum Activity, antagonist potency given as pA2 [1, 4]: 6.6; Uterus Activity, agonist potency given as percent of BK potency ([2]; isolated rat uterus): 9.4%
RPPGFSPFR [bradykinin, Arg^1 -Pro^2 -Pro^3 -Gly^4 -Phe^5 -Ser^6 -Pro^7 -Phe^8 -Arg^9, reference compound] |  |  | pD2 value (negative logarithm of the dose causing half-maximal contraction) ([1]; guinea pig ileum): 7.4; pD2 value (negative logarithm of the dose causing half-maximal contraction) ([2]; rat uterus): 7.9
